Data: ChEMBL document CHEMBL1130843, “Design and synthesis of an orally active GPIIb/IIIa antagonist based on a phenylpiperazine scaffold” (Bioorg Med Chem Lett, 1998)

Tests used:
[1] = species: Cavia porcellus; assay: Compound was tested for inhibition of ADP induced platelet aggregation in guinea pig; type: functional
[2] = species: Homo sapiens; assay: Compound was tested for inhibition of ADP induced platelet aggregation in human platelet-rich plasma; type: functional
[3] = target: Integrin alpha-IIb/beta-3 (Homo sapiens, UniProt P05106+P08514); assay: Inhibition of fibrinogen binding to platelet glycoprotein alpha IIb beta-3 integrin in ELISA
Integrin alpha-IIb/beta-3, sequence (P05106 27-788 limits assumed): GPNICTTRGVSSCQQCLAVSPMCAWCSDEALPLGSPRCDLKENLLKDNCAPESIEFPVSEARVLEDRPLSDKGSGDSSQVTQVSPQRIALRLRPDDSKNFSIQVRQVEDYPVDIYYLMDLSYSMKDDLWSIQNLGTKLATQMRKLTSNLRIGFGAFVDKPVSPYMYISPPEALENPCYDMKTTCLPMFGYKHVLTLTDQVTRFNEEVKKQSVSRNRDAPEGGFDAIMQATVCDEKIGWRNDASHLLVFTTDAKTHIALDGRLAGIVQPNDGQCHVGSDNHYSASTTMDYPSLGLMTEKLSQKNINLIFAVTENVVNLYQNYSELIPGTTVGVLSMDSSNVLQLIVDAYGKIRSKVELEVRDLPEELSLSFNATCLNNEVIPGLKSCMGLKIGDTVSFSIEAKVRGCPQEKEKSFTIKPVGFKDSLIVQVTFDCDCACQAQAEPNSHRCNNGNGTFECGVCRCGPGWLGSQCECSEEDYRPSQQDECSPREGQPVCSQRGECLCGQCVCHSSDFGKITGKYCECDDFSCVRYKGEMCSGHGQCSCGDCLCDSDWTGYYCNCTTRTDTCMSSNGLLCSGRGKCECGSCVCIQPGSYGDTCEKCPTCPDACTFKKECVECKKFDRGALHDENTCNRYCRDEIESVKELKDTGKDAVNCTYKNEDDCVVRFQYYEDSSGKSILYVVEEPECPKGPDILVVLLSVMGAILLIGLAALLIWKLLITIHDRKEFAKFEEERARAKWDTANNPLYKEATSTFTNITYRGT
Integrin alpha-IIb/beta-3, sequence (P08514 32-887 limits assumed): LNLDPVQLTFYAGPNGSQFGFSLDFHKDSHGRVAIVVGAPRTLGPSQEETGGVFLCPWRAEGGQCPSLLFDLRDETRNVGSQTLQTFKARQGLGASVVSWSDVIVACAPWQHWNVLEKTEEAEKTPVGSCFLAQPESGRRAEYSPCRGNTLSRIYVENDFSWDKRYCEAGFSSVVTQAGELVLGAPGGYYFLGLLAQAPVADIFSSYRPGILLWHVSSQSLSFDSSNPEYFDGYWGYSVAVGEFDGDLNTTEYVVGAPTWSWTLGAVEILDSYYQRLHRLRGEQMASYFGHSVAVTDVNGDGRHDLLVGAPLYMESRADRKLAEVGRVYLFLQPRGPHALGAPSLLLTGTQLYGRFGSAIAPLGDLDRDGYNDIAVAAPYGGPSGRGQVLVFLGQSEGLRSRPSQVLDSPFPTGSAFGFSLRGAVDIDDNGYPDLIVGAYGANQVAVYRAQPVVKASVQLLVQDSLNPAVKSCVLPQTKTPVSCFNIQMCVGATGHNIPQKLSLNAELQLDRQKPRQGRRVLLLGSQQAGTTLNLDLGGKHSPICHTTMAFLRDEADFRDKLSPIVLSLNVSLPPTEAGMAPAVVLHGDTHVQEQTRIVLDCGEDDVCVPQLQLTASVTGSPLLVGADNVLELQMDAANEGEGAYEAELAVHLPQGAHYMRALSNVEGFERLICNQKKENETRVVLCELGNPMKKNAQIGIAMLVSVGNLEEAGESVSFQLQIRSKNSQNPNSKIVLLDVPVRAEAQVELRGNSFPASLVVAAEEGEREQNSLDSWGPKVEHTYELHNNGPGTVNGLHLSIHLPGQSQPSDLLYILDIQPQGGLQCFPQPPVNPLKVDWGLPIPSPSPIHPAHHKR
Integrin alpha-IIb/beta-3, sequence (P08514 891-1039 limits assumed): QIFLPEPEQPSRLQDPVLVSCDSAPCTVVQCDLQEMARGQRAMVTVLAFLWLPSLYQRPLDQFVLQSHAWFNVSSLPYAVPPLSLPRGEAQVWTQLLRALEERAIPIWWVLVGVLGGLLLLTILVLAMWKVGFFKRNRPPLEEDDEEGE

IC50 [1]	IC50 [2]	IC50 [3]	Structure (SMILES)
0.251 µM	0.631 µM	0.00794 µM	N=C(N)c1ccc(N2CCN(C3CCN(CC(=O)O)CC3)CC2)cc1
3.16 µM	1 µM	0.002 µM	N=C(N)c1ccc(N2CCN(c3ccc(OCC(=O)O)cc3)CC2)cc1
–	–	> 10 µM	N=C(N)c1ccc(N2CCN(c3ccc(OCCCC(=O)O)cc3)CC2)cc1
–	–	39.8 µM	N=C(N)c1ccc(CN2CCN(c3cccc(CC(=O)O)c3)CC2)cc1
–	–	15.8 µM	N=C(N)c1ccc(CN2CCN(c3cccc(OCC(=O)O)c3)CC2)cc1
–	–	2 µM	N=C(N)c1ccc(N2CCN(c3cccc(OCC(=O)O)c3)CC2)cc1
0.251 µM	–	0.001 µM	CN(CC(=O)c1ccc(OCC(=O)O)c(OCC(=O)O)c1)C(=O)c1ccc(C(=N)N)cc1
–	–	3.98 µM	N=C(N)c1ccc(N2CCN(Cc3cccc(OCC(=O)O)c3)CC2)cc1
–	–	1.58 µM	N=C(N)c1ccc(N2CCN(c3cccc(CC(=O)O)c3)CC2)cc1
–	–	2.51 µM	N=C(N)c1ccc(CN2CCN(c3ccc(CC(=O)O)cc3)CC2)cc1
–	–	1 µM	CC(C)(Oc1ccc(N2CCN(c3ccc(C(=N)N)cc3)CC2)cc1)C(=O)O
–	–	1 µM	N=C(N)c1ccc(N2CCN(c3ccc(CC(=O)O)cc3)CC2)cc1
–	–	1.26 µM	N=C(N)c1ccc(N2CCN(Cc3cccc(CC(=O)O)c3)CC2)cc1
–	–	0.0251 µM	N=C(N)c1ccc(N2CCN(c3ccc(CCC(=O)O)cc3)CC2)cc1
–	–	0.2 µM	N=C(N)c1ccc(N2CCN(Cc3ccc(CC(=O)O)cc3)CC2)cc1
